Measured values reported in PubChem BioAssay (NCI).
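Where inhibition never reached the appropriate level, the endpoint shown equals the highest concentration tested. Otherwise, values were interpolated linearly from a five-concentration, 48-hour dose response in 96-well plates. GI50 = concentration required for 50% inhibition of growth. TGI is the concentration that stops growth completely.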

Tests used:
Assay in all cases: DTP human tumour cell line panel, 48 h
OVCAR-5 ovarian = tested on: OVCAR-5 ovarian
HCC-2998 colon = tested on: HCC-2998 colon
HOP-92 NSCLC = tested on: HOP-92 NSCLC
SF-539 CNS = tested on: SF-539 CNS
BT-549 breast = tested on: BT-549 breast
UACC-62 melanoma = tested on: UACC-62 melanoma
LOX IMVI melanoma = tested on: LOX IMVI melanoma
DU-145 prostate = tested on: DU-145 prostate
UACC-257 melanoma = tested on: UACC-257 melanoma
SF-268 CNS = tested on: SF-268 CNS
COLO 205 colon = tested on: COLO 205 colon
SK-OV-3 ovarian = tested on: SK-OV-3 ovarian
NCI/ADR-RES ovarian = tested on: NCI/ADR-RES ovarian
CAKI-1 renal = tested on: CAKI-1 renal
KM12 colon = tested on: KM12 colon
NCI-H522 lung = tested on: NCI-H522 lung
SN12C renal = tested on: SN12C renal
HCT-116 colon = tested on: HCT-116 colon
A498 renal = tested on: A498 renal
A549 NSCLC = tested on: A549 NSCLC
NCI-H23 lung = tested on: NCI-H23 lung
RXF 393 renal = tested on: RXF 393 renal
NCI-H460 lung = tested on: NCI-H460 lung
CCRF-CEM leukemia = tested on: CCRF-CEM leukemia
786-0 renal = tested on: 786-0 renal
OVCAR-4 ovarian = tested on: OVCAR-4 ovarian
U251 CNS = tested on: U251 CNS
SNB-75 CNS = tested on: SNB-75 CNS
PC-3 prostate = tested on: PC-3 prostate
NCI-H226 lung = tested on: NCI-H226 lung
SK-MEL-2 melanoma = tested on: SK-MEL-2 melanoma
HOP-62 NSCLC = tested on: HOP-62 NSCLC
SNB-19 CNS = tested on: SNB-19 CNS
MOLT-4 leukemia = tested on: MOLT-4 leukemia
HCT-15 colon = tested on: HCT-15 colon
UO-31 renal = tested on: UO-31 renal
SK-MEL-5 melanoma = tested on: SK-MEL-5 melanoma
MDA-MB-435 = tested on: MDA-MB-435
OVCAR-8 ovarian = tested on: OVCAR-8 ovarian
HT29 colon = tested on: HT29 colon
EKVX NSCLC = tested on: EKVX NSCLC
ACHN renal = tested on: ACHN renal
SF-295 CNS = tested on: SF-295 CNS
K-562 leukemia = tested on: K-562 leukemia
RPMI-8226 leukemia = tested on: RPMI-8226 leukemia
M14 melanoma = tested on: M14 melanoma
MDA-MB-231 breast = tested on: MDA-MB-231 breast
IGROV1 ovarian = tested on: IGROV1 ovarian
MALME-3M melanoma = tested on: MALME-3M melanoma
HL-60(TB) leukemia = tested on: HL-60(TB) leukemia
SK-MEL-28 melanoma = tested on: SK-MEL-28 melanoma
HS 578T breast = tested on: HS 578T breast
TK-10 renal = tested on: TK-10 renal
SW-620 colon = tested on: SW-620 colon
T-47D breast = tested on: T-47D breast
MCF7 breast = tested on: MCF7 breast

## CC(C)(C)c1cc(NC(=O)Nc2ccc(-c3cn4c5c(sc4n3)CCc3c[nH]cc3-5)cc2)no1
OVCAR-5 ovarian
  GI50: 2960 nM
  TGI: > 50000 nM
HCC-2998 colon
  GI50: 1680 nM
  TGI: 7490 nM
HOP-92 NSCLC
  GI50: 1060 nM
  TGI: 3670 nM
SF-539 CNS
  GI50: 875 nM
  TGI: 4170 nM
BT-549 breast
  GI50: 1310 nM
  TGI: 4220 nM
UACC-62 melanoma
  GI50: 1640 nM
  TGI: 5880 nM
LOX IMVI melanoma
  GI50: 1300 nM
  TGI: 3230 nM
DU-145 prostate
  GI50: 2310 nM
  TGI: > 50000 nM
UACC-257 melanoma
  GI50: 2310 nM
  TGI: 13900 nM
SF-268 CNS
  GI50: 1920 nM
  TGI: 16500 nM
COLO 205 colon
  GI50: 1000 nM
  TGI: 2230 nM
SK-OV-3 ovarian
  GI50: 2120 nM
  TGI: 31300 nM
NCI/ADR-RES ovarian
  GI50: 1890 nM
  TGI: > 50000 nM
CAKI-1 renal
  GI50: 1490 nM
  TGI: > 50000 nM
KM12 colon
  GI50: 1550 nM
  TGI: 6100 nM
NCI-H522 lung
  GI50: 1690 nM
  TGI: 6700 nM
SN12C renal
  GI50: 3000 nM
  TGI: > 50000 nM
HCT-116 colon
  GI50: 1700 nM
  TGI: 12500 nM
A498 renal
  GI50: 1040 nM
  TGI: 2620 nM
A549 NSCLC
  GI50: 2020 nM
  TGI: > 50000 nM
NCI-H23 lung
  GI50: 1420 nM
  TGI: 4870 nM
RXF 393 renal
  GI50: 333 nM
  TGI: 1800 nM
NCI-H460 lung
  GI50: 1570 nM
  TGI: 5340 nM
CCRF-CEM leukemia
  GI50: 1790 nM
  TGI: > 50000 nM
786-0 renal
  GI50: 754 nM
  TGI: 2100 nM
OVCAR-4 ovarian
  GI50: 2620 nM
  TGI: > 50000 nM
U251 CNS
  GI50: 738 nM
  TGI: 3780 nM
SNB-75 CNS
  GI50: 990 nM
  TGI: 4010 nM
PC-3 prostate
  GI50: 1540 nM
  TGI: > 50000 nM
NCI-H226 lung
  GI50: 2280 nM
  TGI: > 50000 nM
SK-MEL-2 melanoma
  GI50: 1240 nM
  TGI: 3150 nM
HOP-62 NSCLC
  GI50: 1150 nM
  TGI: 2740 nM
SNB-19 CNS
  GI50: 1580 nM
  TGI: > 50000 nM
MOLT-4 leukemia
  GI50: 1260 nM
  TGI: > 50000 nM
HCT-15 colon
  GI50: 1190 nM
  TGI: 4280 nM
UO-31 renal
  GI50: 1330 nM
  TGI: 3900 nM
SK-MEL-5 melanoma
  GI50: 1020 nM
  TGI: 2110 nM
MDA-MB-435
  GI50: 1970 nM
  TGI: > 50000 nM
OVCAR-8 ovarian
  GI50: 2480 nM
  TGI: > 50000 nM
HT29 colon
  GI50: 949 nM
  TGI: 1920 nM
EKVX NSCLC
  GI50: 2050 nM
  TGI: > 50000 nM
ACHN renal
  GI50: 1980 nM
  TGI: > 50000 nM
SF-295 CNS
  GI50: 738 nM
  TGI: 1740 nM
K-562 leukemia
  GI50: 1240 nM
  TGI: > 50000 nM
RPMI-8226 leukemia
  GI50: 1080 nM
  TGI: 4140 nM
M14 melanoma
  GI50: 1450 nM
  TGI: 4900 nM
MDA-MB-231 breast
  GI50: 2000 nM
  TGI: 18100 nM
IGROV1 ovarian
  GI50: 2360 nM
  TGI: > 50000 nM
MALME-3M melanoma
  GI50: 1440 nM
  TGI: 4060 nM
HL-60(TB) leukemia
  GI50: 1510 nM
  TGI: > 50000 nM
SK-MEL-28 melanoma
  GI50: 1540 nM
  TGI: 9500 nM
HS 578T breast
  GI50: 950 nM
  TGI: 2940 nM
TK-10 renal
  GI50: 3410 nM
  TGI: > 50000 nM
SW-620 colon
  GI50: 2130 nM
  TGI: 15000 nM
T-47D breast
  GI50: 1190 nM
  TGI: 3750 nM
MCF7 breast
  GI50: 1080 nM
  TGI: 3120 nM
